Test results as given in US9192635B2.

Assay: Hydrogen peroxide retention after desiccation and rehydration (peroxide check strips)
Assay type: physicochemical
Conditions: 1-10 g extract in 20 ml 35% hydrogen peroxide, heated at 80° C. to 5 ml, rehydrated; colorimetric strips

Oc1ccc(C=Cc2cc(O)cc(O)c2)cc1 [resveratrol, Resveratrol]
peroxide retention capability: relatively less ability to form stable perhydrates
